Each structure is given as a SMILES string. Entries after “also recorded” stand apart in the source; their conditions may differ.

In one assay the target is T1, DHFR-HiBiT (Homo sapiens, UniProt P00374).
T1 construct: expressed in transfected cells; host or cells: Flp-In T-Rex HEK293
T1 sequence (P00374 1-187): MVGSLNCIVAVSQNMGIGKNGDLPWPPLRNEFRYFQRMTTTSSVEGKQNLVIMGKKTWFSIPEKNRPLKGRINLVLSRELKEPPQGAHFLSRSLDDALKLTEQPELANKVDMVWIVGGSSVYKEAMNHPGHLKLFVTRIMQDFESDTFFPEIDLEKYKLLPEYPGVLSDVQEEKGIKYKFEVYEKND
Briefly: UCEP-Screen in HEK293 DHFR-HiBiT reporter cells (bioluminescence). The assay is classed as binding. Conditions: 20 μM, 10 minutes. In general terms: The HiBiT peptide binds its large partner to form an active luciferase.

In the next assay the test system is K562 living cells. Briefly: UCEP-ID MR experiment (proteome-wide target deconvolution by quantitative LC-MS/MS). To be noted: K562, 10 μM, 10 minutes.
Another assay has as its target T2, HER2-HiBIT (Homo sapiens, UniProt P04626).
T2 construct: expressed in transfected cells; host or cells: reporter cells
Briefly: UCEP in HER2-HiBIT reporter cells with 1% CHAPS (bioluminescence). To be noted: 3M to 5M urea. Type of assay: binding. The source says: In the Flp-In T-Rex system, modified pENTR1A plasmids, entry vectors, are used to clone protein of interest. pENTR1A plasmids are modified to include thirty-three nucleotide sequences of HiBiT for tagging protein of interest at either N- or C terminus. A HiBiT-tagged protein of interest is transferred to one of gateway destination vectors, pFRT/TO/DEST or pEF5/FRT/V5-DEST, via gateway LR reaction. Flp-In T-Rex HEK293 cells are transfected with the final destination vector that include HiBiT-tagged gene of interest and pOG44 vector expressing Flp recombinase. Cells are selected with Hygromycin and Blasticidin to remove untransformed cells. In the CRISPR system, the ribonucleoprotein complex including Cas9, crRNA, tracrRNA is formed in vitro. Cells are electroporated to deliver the Cas9 ribonucleoprotein complex along with a single-stranded donor oligonucleotide. Next day, cells are sorted as a single cell into a transparent 96-well tissue culture microplate and incubated until they became confluent.
UCEP conditions such as denaturant concentration and dilution factor should be optimized for each target before performing any HTS. Here, Flp-In T-Rex cells were used for assay development. Cells were seeded into the 96-well clear bottom white microplate in growth medium and the expression of HiBiT-tagged protein was induced with tetracycline. […] Bioluminescence was then measured. […]

T2 sequence (P04626 23-1255): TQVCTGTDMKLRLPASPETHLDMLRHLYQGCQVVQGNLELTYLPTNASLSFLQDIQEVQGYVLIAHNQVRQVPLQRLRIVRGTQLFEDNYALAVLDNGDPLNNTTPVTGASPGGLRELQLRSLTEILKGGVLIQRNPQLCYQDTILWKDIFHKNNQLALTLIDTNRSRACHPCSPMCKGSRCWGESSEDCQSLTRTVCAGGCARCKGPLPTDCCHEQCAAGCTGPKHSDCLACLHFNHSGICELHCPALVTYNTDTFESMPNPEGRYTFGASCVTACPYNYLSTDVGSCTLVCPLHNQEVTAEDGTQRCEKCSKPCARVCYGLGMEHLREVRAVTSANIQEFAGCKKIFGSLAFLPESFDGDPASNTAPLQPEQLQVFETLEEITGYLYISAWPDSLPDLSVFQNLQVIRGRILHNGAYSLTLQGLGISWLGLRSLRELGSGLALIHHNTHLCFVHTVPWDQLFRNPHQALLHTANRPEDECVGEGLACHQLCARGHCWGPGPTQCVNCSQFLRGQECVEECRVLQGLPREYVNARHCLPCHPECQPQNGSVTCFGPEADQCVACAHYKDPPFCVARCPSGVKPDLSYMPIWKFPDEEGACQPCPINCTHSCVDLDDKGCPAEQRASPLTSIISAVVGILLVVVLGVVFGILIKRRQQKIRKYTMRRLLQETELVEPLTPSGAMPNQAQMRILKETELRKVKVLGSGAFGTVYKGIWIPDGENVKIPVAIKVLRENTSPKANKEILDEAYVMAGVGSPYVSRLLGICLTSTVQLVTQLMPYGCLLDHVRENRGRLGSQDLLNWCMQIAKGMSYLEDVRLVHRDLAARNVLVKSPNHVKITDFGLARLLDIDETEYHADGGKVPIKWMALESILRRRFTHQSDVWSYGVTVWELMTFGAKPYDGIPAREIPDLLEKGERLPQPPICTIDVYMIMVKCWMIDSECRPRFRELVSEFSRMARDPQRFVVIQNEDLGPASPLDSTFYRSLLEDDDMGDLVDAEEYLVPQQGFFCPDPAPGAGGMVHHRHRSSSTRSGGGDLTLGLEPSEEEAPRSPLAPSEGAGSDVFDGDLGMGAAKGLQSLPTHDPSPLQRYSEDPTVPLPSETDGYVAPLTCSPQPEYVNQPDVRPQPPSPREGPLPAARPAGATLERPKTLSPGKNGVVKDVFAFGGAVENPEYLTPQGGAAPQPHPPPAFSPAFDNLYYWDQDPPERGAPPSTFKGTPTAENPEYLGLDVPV
Procedure for DHFR-HiBiT: UCEP conditions such as denaturant concentration and dilution factor should be optimized for each target before performing any HTS. Here, Flp-In T-Rex cells were used for assay development. Cells were seeded into the 96-well clear bottom white microplate in growth medium and the expression of HiBiT-tagged protein was induced with tetracycline. Cells are treated with chemical of interest for specific duration, before incubation in PBS containing different concentrations of urea. Urea was then diluted with PBS. HiBiT lytic detection buffer containing LgBiT and substrate was then added. Bioluminescence was then measured.

As to `CNC(=O)c1ccc(N2C(=S)N(c3ccc(C#N)c(C(F)(F)F)c3)C(=O)C2(C)C)cc1F` [Enzalutamide], the “DHFR-HiBiT protein stabilization upon UCEP” value on DHFR-HiBiT was “did not significantly change”.

For `CN(Cc1cnc2nc(N)nc(N)c2n1)c1ccc(C(=O)N[C@@H](CCC(=O)O)C(=O)O)cc1` [MTX, methotrexate], the “Binding targets identified by UCEP-ID” value with K562 living cells is “DHFR”. With `CN[C@@H]1C[C@H]2O[C@@](C)([C@@H]1OC)n1c3ccccc3c3c4c(c5c6ccccc6n2c5c31)C(=O)NC4` [Staurosporine], the “DHFR-HiBiT protein stabilization upon UCEP” value on DHFR-HiBiT is “did not significantly change”.

On to `Cc1cc(Nc2ncnc3ccc(NC4=NC(C)(C)CO4)cc23)ccc1Oc1ccn2ncnc2c1` [Tucatinib], for which the “Stabilization of HER2-HiBIT (fold change of bioluminescence vs control)” value at HER2-HiBIT is “maximum stabilization of HER2 at 3M urea; also recorded: increased stability”.

The values above are taken from US20240302379A1, “METHODS FOR IDENTIFYING AND MONITORING INTERACTIONS OF PROTEIN WITH LIGAND” (Agency for Science, Technology and Research, priority 2020, published 2024).
